# Results reported in article PMC11750672, “The in vivo metabolic pathway of Deg-AZM and in vitro investigations into the contribution of drug metabolizing enzymes and drug transporters in the drug interactions of Deg-AZM, a clinical-stage new transgelin agonist” (Frontiers in Pharmacology, 2025).
# Legend:
# [1] = Bidirectional transport in Caco-2 cell monolayer; format: in vitro ADME, human; conditions: human, Caco-2, efflux positive control, (−) without quinidine
# Procedure: (§1) The human colon adenocarcinoma Caco-2 cell line was provided by Institute of Basic Medicine, Chinese Academy of Medical Sciences (Beijing, China). Caco-2 cells were cultured in a high sugar DMEM medium containing 10% (v/v) fetal bovine serum at 37°C and 5% CO2 incubator. Caco-2 cells (2.5 ×10^5/mL) was inoculated into Transwell polycarbonate membrane 12 well plate. The culture medium was changed every 2 days for the first 14 days, and then every day. After 21 consecutive days, fully differentiated cell monolayers were obtained for drug transport assays.
# (§2) Transepithelial electrical resistance (TEER) was used to indicate monolayer integrity. The electrode of the Millcell ERS-2 voltammeter was placed in HBSS solution for 20 min to pre-balance. At the same time, the culture medium was removed from the Transwell culture plate, 0.5 mL of pre-heated HBSS solution was added into the Apical (AP) of transwell, 1.5 mL of pre-heated HBSS solution was added into the Basolateral (BL) of transwell. After that, the transwell was balanced at 37°C for 20 min and then replaced the HBSS solution with the pre-heated HBSS solution, the TEER value was measured finally. Caco-2 cell monolayers with TEER >350 Ω cm^2 which means that the cells have formed a tight monolayer, were used for the experiment. The TEER value was calculated according to the following formula: TEER=TEERT ‐ TEERc×A where TEERT represented the TEER value (Ω) of the measured Transwell chamber with Caco-2 cells, TEERC was the TEER value (Ω) of the transwell chamber in the control group, and A was the membrane area of the transwell cavity (1.12 cm^2 in this experiment).
# (§3) In order to evaluate the usability of the Transwell model research, [^3H] Propranolol (0.5 μCi/mL) and [^14C] PEG4000 (1 μCi/mL) served as high-permeability and impermeability controls to verify the uptake direction on Caco-2 cell monolayer, respectively. Rhodamine 123 was used as a positive control for efflux mechanism in bidirectional transport assay on Caco-2 cell monolayer.
# (§4) The transmembrane permeability of Deg-AZM (2, 10 or 50 µM) and the potential to inhibit P-gp by Deg-AZM (2, 10 or 50 µM) were evaluated using Caco-2 cell monolayer both apical-to-basolateral (A-B) and basolateral-to-apical (B-A) directions at 37°C for 1 h, the experiments were conducted using quinidine (50 μM) as the inhibitor for P-gp. At the end of incubation, receiver and donor samples were both diluted by assay buffer and analyzed by LC-MS/MS.
# P-gp = test system: T1, P-gp; assay: Bidirectional transport in Caco-2 cell monolayer with P-gp inhibitor quinidine; format: in vitro ADME, human; conditions: human, Caco-2, with quinidine 50 μM; efflux positive control, (+) quinidine; n = 3
# T1 construct: evaluated using Caco-2 cell monolayer both apical-to-basolateral (A-B) and basolateral-to-apical (B-A) directions; endogenous in cells; host or cells: Caco-2
# Procedure: as §1, §2, §3, §4
# [2] = Exposure profiles of Deg-AZM and metabolites in rat plasma, urine, feces and bile (UPLC-QTOF-MS); format: in vivo, rats; conditions: / = not detected; for Proportion in total related substances, Feces: rat feces 0-24 h; for Proportion in total related substances, Plasma: rat plasma 0.167-8 h after oral Deg-AZM, by AUC0-t of chromatographic peak area; for Proportion in total related substances, Urine: rat urine 0-24 h
# Procedure: (§5) The plasma samples at 0.167 h, 0.5 h, 3 h and 8 h after administration were obtained from the study of tissue distribution in rats ([Gu et al., 2024]). Urine, feces and bile samples at 0–24 h after administration were obtained from the excretion study of a single gavage administration of 25 mg/kg Deg-AZM in rats ([Gu et al., 2024]).
# Plasma samples were precipitated with methanol at a ratio of 1:3. Urine samples were diluted with 50% methanol at a ratio of 1:80. The feces was thoroughly ground and sonicated with a 50% methanol at a ratio of 1 g/10 mL to obtain the homogenate, then the homogenate were precipitated with methanol at a ratio of 1:1. Bile samples were precipitated with 50% methanol at a ratio of 1:1. The above obtained samples were vortexed for 1 min and centrifugated at 4°C, 12,000 rpm for 10 min. Finally, the upper layer was analyzed using the UPLC-QTOF-MS system.
# The metabolites of Deg-AZM in the plasma, urine, feces and bile samples were identified by UPLC-QTOF-MS system. Liquid chromatography was performed on an ACQUITY UPLC^TM I-Class UPLC unit with a Waters ACQUITY UPLC HSS T3 (100 × 2.1 mm, 1.8 µm). A gradient program was employed with the mobile phase combining solvent A (0.02% formic acid in 5% acetonitrile) and solvent B (acetonitrile) as follows: 100% A (0–0.5 min), 100%–85% A (0.5–7 min), 85%–5% A (7–9 min), 5% A (9–12 min), 5%–100% A (12–15 min). The flow rate was 0.40 mL/min. The column temperature was maintained at 40°C.
# A Waters Q-TOF Xevo G2-XS Spectrometer equipped with ESI source under positive ion mode was utilized to conduct mass spectrometry detection, for which the MS^E mode was set at the mass range of 100–1,000 Da. The cone voltage was 40 V. The desolvation temperature was set at 500°C and source temperature was 100°C. The desolvation gas flow rate was 800 L/h and the cone gas flow rate was 50 L/h. In MS^E centroid mode, the MS data were acquired with the low energy function in the trap collision energy (6 eV), and the tandem mass data were acquired with the high energy function in the ramp trap collision energy (35–45 eV).
# The extraction ion chromatogram of plasma samples at 0.167 h, 0.5 h, 3 h and 8 h after administration of Deg-AZM in rats was shown in Figure 2. The extraction ion chromatogram of urine, feces and bile samples collected from 0 to 24 h after oral administration of Deg-AZM in rats was shown in Figure 3. The AUC0-t of Deg-AZM and its metabolites in plasma sample were calculated by trapezoidal rule based on the chromatographic peak area. 21 metabolites were found in rat plasma, with M0 (Deg-AZM) and metabolite M2 (demethylated) being the main exposure forms in rat plasma. M0 and M2 accounted for 61.6% and 23.0% of the total related substances in rat plasma, respectively. The relative proportions of Deg-AZM and its metabolites in urine, feces and bile samples were evaluated by the chromatographic peak area, as shown in Figure 4. The detailed proportion of Deg-AZM and its metabolites could be found in Supplementary Table S1. M0 and 28 metabolites were found in the urine of rats. […] M0 and 42 metabolites were found in the feces of rats. Metabolite M1-2 (monohydroxylation, 18.1%) and metabolite M2 (16.6%) were the main forms of fecal excretion of Deg-AZM in rats after oral administration. M0 and 38 metabolites were found in the bile samples of rats. Metabolite M1-2 (monohydroxylation, 19.2%) and metabolite M2 (16.5%) were the main forms of biliary excretion of Deg-AZM in rats after oral administration.
# [3] = Excretion and material balance in rats (urine, feces 0-24 h); format: in vivo; conditions: through the kidneys and urine
# Procedure: as §5
# The types and proportions of metabolites in the excretion pathway were elucidated in this study. […] Based on the peak area in this study, the total amount of metabolites in urine and feces of rats was 0.589 times and 9.96 times that of the original form of Deg-AZM, respectively. The total amount of Deg-AZM excreted in its original form and various metabolites in urine and feces was 23.7% and 19.8% of the administered dose, respectively, with a material balance coefficient of 43.5%. Deg-AZM was mainly excreted in the form of its original form M0 (cumulative excretion fraction of 14.9%) and metabolite M2 (cumulative excretion fraction of 5.33%) through the kidneys and urine, and in the form of metabolite M1-2 (cumulative excretion fraction of 4.29%) and M2 (cumulative excretion fraction of 3.93%) through the intestines and feces. […] It is necessary to obtain standard samples of the main metabolites for accurate quantification or use isotope tracing techniques to further improve material balance research in the clinical stage.
# CYP2B6 = assay: CYP induction (mRNA, qPCR) in human hepatocytes; conditions: positive control 1 mM
# From the text: (§6) After culture and complete induction, total mRNA was extracted by TRNzol RNA Extraction Kit (purchased from Tiangen Biochemical Technology Co., Ltd., Beijing). The RNA was reverse transcribed into cDNA according to the instructions of the Transcriptor First Strand cDNA Synthesis Kit (purchased from Roche, Switzerland). Using reverse transcribed cDNA as a template, amplifying the internal reference genes of β-Actin of the sample and target genes of CYP1A2, CYP2B6, and CYP3A4 respectively to compare the expression differences.
# Caco-2 cell monolayer = assay: Bidirectional transport in Caco-2 cell monolayer; format: in vitro ADME, human; conditions: 0.5 μCi/mL, high-permeability control; n = 3
# Procedure: as §1, §2, §3, §4
# CYP1A2 = assay: CYP induction (mRNA, qPCR) in human hepatocytes; format: in vitro ADME; conditions: positive control 50 μM
# From the text: as §6
# [4] = single gavage 25 mg/kg Deg-AZM, by peak area
# [5] = single gavage 25 mg/kg Deg-AZM, by peak area, 25 mg/kg
smiles,measurement,setting,value
"COC(=O)c1ccccc1-c1c2ccc(=N)cc-2oc2cc(N)ccc12 [Rhodamine 123, reference compound]",Papp A→B,[1]; n = 3,0.0031 ± 0.00141 ×10⁻⁶ cm/s
same,Papp B→A,[1]; n = 3,0.166 ± 0.0287 ×10⁻⁶ cm/s
same,efflux ratio,[1]; read-out: ER,53.5
same,Papp A→B,P-gp,0.00478 ± 0.000709 ×10⁻⁶ cm/s
same,Papp B→A,P-gp,0.0417 ± 0.0152 ×10⁻⁶ cm/s
CCC1OC(=O)C(C)C(O)C(C)C(O)C(C)(O)CC(C)CNC(C)C(O)C1(C)O (centres unmarked) [M2],"Proportion in total related substances, Bile","[2]; rat bile 0-24 h, single gavage 25 mg/kg Deg-AZM, by peak area",16.5%
same,"Proportion in total related substances, Feces",[2]; [4],16.6%
same,"Proportion in total related substances, Plasma",[2],23.0%
same,"Proportion in total related substances, Urine",[2]; [4],22.5%
same,"Cumulative excretion fraction, urine",[3],5.33%
CCC(O)C(C)(O)C(O)C(C)N(C)CC(C)CC(C)(O)C(O)C(C)C(O)C(C)C(=O)O (centres unmarked) [M11],"Proportion in total related substances, Feces",[2]; [5],1.24%
same,"Proportion in total related substances, Plasma",[2],2.04%
same,"Proportion in total related substances, Urine",[2]; [5],0.224%
"CCC1(c2ccccc2)C(=O)NC(=O)NC1=O [Phenobarbital, reference compound]","CYP2B6 mRNA induction, times of control group",CYP2B6; hepatocyte batch HUB,13.5
same,"CYP2B6 mRNA induction, times of control group",CYP2B6; hepatocyte batch LHuf 17905B,10.3
same,"CYP2B6 mRNA induction, times of control group",CYP2B6; hepatocyte batch MWB,14.7
"CC(C)NCC(O)COc1cccc2ccccc12 (centres unmarked) [[^3H] Propranolol, reference compound]",P app AP→BL,Caco-2 cell monolayer,9.64 ± 1.05 ×10^–6 cm/s
"COc1ccc2[nH]c([S+]([O-])Cc3ncc(C)c(OC)c3C)nc2c1 (centres unmarked) [Omeprazole, reference compound]","CYP1A2 mRNA induction, times of control group",CYP1A2; hepatocyte batch HUB,48.2
same,"CYP1A2 mRNA induction, times of control group",CYP1A2; hepatocyte batch LHuf 17905B,56.0
same,"CYP1A2 mRNA induction, times of control group",CYP1A2; hepatocyte batch MWB,64.6
